The experiment concerns the target T1, E. coli HslV peptidase (Escherichia coli, UniProt P0A7B8).
T1 construct: His tag (inferred from Ni-chelating purification and the pET20B+ vector); made in house; host or cells: E. coli BL21 (DE3), pET20B+ vector
The experiment in a line: biochemical. To be noted: recombinant E. coli HslV; substrate Z-Gly-Gly-Leu-AMC; in the absence of HslU; ED50 = concentration giving half maximal reaction velocity, from Vi/Vo plots; read-out: E. coli HslV activation (ED50 in μM). The method, then:
ED50 values were calculated from the plots of Vi/Vo versus compound concentration in which Vi and Vo were the velocities in the presence and absence of the compound^20.
The HslV activation assays were carried out with recombinant E. coli HslV and HslU. Recombinant HslV and HslU were expressed in E. coli BL21 (DE3) cells containing pET20B+ vector. Purification of both proteins was carried out using Ni-chelating and ion-exchange chromatography as reported elsewhere^4.
Plots of HslV peptidase activity as a function of compound concentrations were constructed (FIG. 4).

T1 sequence (P0A7B8 2-176): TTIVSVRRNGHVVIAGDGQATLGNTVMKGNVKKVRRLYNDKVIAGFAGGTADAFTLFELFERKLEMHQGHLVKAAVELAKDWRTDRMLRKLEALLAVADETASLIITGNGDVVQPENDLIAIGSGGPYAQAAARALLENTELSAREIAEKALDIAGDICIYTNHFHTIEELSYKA

As for `O=c1c2ccccc2nc(-c2ccc([N+](=O)[O-])cc2)n1/N=C/c1c(O)ccc2ccccc12` [Compound 1, 3-[(E)-[(2-hydroxynaphthalen-1-yl)methylidene]amino]-2-(4-nitrophenyl)-3,4-dihydroquinazolin-4-one], the EC50 worked out at 0.9 ± 0.25 µM. `O=C(N/N=C/c1cc(=O)c2ccccc2o1)c1ccccc1` [Compound 2, N″-[(1E)-(4-oxo-4H-chromen-2-yl)methylidene]benzohydrazide]: the EC50 is 1.3 ± 0.4 µM.

These data come from US9119857B2, “Small molecule activators of HsIV protease for development of novel antimicrobials” (priority 2013, dated 2015).
